Data set [1] in a line: Dissociation constant, pKa of the compound by capillary electrophoresis. It is filed as physicochemical.
Data set [2] is described as follows: Plasma concentration in wild-type C57Bl/6J mouse at 30 mg/kg, po after 4 hrs. The class given is ADME, organism-based. On the set-up: dose 30 mg/kg, route oral.
The nature of data set [3]: Drug uptake in wild-type C57Bl/6J mouse brain at 30 mg/kg, po after 4 hrs. The class given is ADME, organism-based. On the set-up: dose 30 mg/kg, route oral. To be noted: read-out: Drug uptake.
Data set [4] is described as follows: Ratio of drug level in brain to plasma in wild-type C57Bl/6J mouse at 30 mg/kg, po after 4 hrs. To be noted: read-out: BPR. Set-up: dose 30 mg/kg, route oral. The class given is ADME, organism-based.

These results are taken from ChEMBL document CHEMBL2401721, “BACE1 inhibitors: a head group scan on a series of amides” (Bioorg Med Chem Lett, 2013).

Molecules are shown by their SMILES.

As a reminder, the pKa is the negative logarithm of the acid dissociation constant. Low values mean a stronger acid or weaker base, high ones a weaker acid or stronger base.

For `C[C@@]1(c2cccc(NC(=O)c3ccc(Cl)cn3)c2)COC(N)=N1`, in data set [1], the pKa came out at 8.3.
Same read-out and setting: under `CC1(c2cccc(NC(=O)c3ccccn3)c2)CSC(N)=N1` (centres undefined) stands 8.3; under `CN1C(=O)C(C)(c2cccc(NC(=O)c3ccc(Cl)cn3)c2)N=C1N` (centres undefined), 7.3.
Same read-out and setting: under `C[C@]1(c2cccc(NC(=O)c3ccc(Cl)cn3)c2)N=C(N)c2ccccc21` stands 9.7.
Still for that read-out and setting: under `NC1=NC2(CCc3ccc(NC(=O)c4ccc(Cl)cn4)cc32)CO1` (centres undefined) stands 8.3; under `NC1=NC2(CCc3ccc(NC(=O)c4ccc(Cl)cn4)cc32)CS1` (centres undefined), 8.3.
As to `CN1CC[C@@](C)(c2cc(NC(=O)c3ccc(Cl)cn3)ccc2F)N=C1N`, the concentration at 4 h in data set [2] was less than 3 ng/mL; in data set [3], less than 13 ng/g. For the same compound, the pKa in data set [1] is more than 11.
Take `C[C@@]1(c2cc(NC(=O)c3ccc(Cl)cn3)ccc2F)CCC2(CC2)C(N)=N1`: the concentration at 4 h came to 81 ng/mL in data set [2] and 8 ng/g in data set [3]. The Kp at 4 h in data set [4] turned out to be 0.1. In data set [1], this compound gave a pKa of more than 11.
On to `C[C@@]1(c2cc(NC(=O)c3ccc(Cl)cn3)ccc2F)CCCOC(N)=N1`, for which, in data set [1], the pKa amounted to 10.4.
